Experimental data taken from patent US20160346347A1 (Oculis ehf., priority 2015, published 2016).

Columns and labels:
[1] = assay type: physicochemical
Procedure: An excess amount of drug was added to aqueous solutions containing up to 20% (w/v) cyclodextrin. The solutions were sonicated at 40-50° C. for 45-60 minutes in sealed glass vials, and then allowed to cool to room temperature (22-23° C.). Small amount of solid drug was then added to each vial, the vial resealed and allowed to equilibrate under constant agitation and protected from light for 7 days at room temperature. When the solutions had reached equilibrium, they were filtered through a 0.45 μm membrane filter and analyzed by high pressure liquid chromatography. […] The complexation efficiency (CE) was determined from the slope of phase-solubility diagrams (plots of total solubility of the drug versus total CD concentration in mol/l) where S0 is the intrinsic solubility of the drug:
The mobile phase consisted of acetonitrile, methanol and water (60:20:20), the flow rate was 1 ml/min, the column oven temperature was 80° C. and the detection wavelength was 205 nm.

[2] = in water (β-cyclodextrin: pure water at room temperature); cited from earlier work

CE (complexation efficiency) [1] | Solubility in the presence of 5% (w/v) cyclodextrin [1] [µg/mL] | Solubility in the presence of 15% (w/v) cyclodextrin [1] [µg/mL] | Molecule | aqueous solubility of the cyclodextrin [2]
0.053 | 130 |  | Randomly methylated β-cyclodextrin | 
0.0011 | 48 ± 4 | 62 ± 5 | 2-Hydroxypropyl-γ-cyclodextrin | 
0.0049 | 62 ± 0.6 | 110 ± 1.5 | OC[C@H]1O[C@@H]2O[C@H]3[C@H](O)[C@@H](O)[C@@H](O[C@H]4[C@H](O)[C@@H](O)[C@@H](O[C@H]5[C@H](O)[C@@H](O)[C@@H](O[C@H]6[C@H](O)[C@@H](O)[C@@H](O[C@H]7[C@H](O)[C@@H](O)[C@@H](O[C@H]8[C@H](O)[C@@H](O)[C@@H](O[C@H]9[C@H](O)[C@@H](O)[C@@H](O[C@H]1[C@H](O)[C@H]2O)O[C@@H]9CO)O[C@@H]8CO)O[C@@H]7CO)O[C@@H]6CO)O[C@@H]5CO)O[C@@H]4CO)O[C@@H]3CO [γ-Cyclodextrin] | 25 % (w/v)
0.031 | 84 | 460 | 2-Hydroxypropyl-α-cyclodextrin | 
0.030 |  |  | OC[C@H]1O[C@@H]2O[C@H]3[C@H](O)[C@@H](O)[C@@H](O[C@H]4[C@H](O)[C@@H](O)[C@@H](O[C@H]5[C@H](O)[C@@H](O)[C@@H](O[C@H]6[C@H](O)[C@@H](O)[C@@H](O[C@H]7[C@H](O)[C@@H](O)[C@@H](O[C@H]8[C@H](O)[C@@H](O)[C@@H](O[C@H]1[C@H](O)[C@H]2O)O[C@@H]8CO)O[C@@H]7CO)O[C@@H]6CO)O[C@@H]5CO)O[C@@H]4CO)O[C@@H]3CO [β-Cyclodextrin] | 2 % (w/v)

Molecule | CE (complexation efficiency) [1] | Solubility in the presence of 5% (w/v) cyclodextrin [1] [µg/mL] | Solubility in the presence of 15% (w/v) cyclodextrin [1] [µg/mL] | aqueous solubility of the cyclodextrin [2]
OC[C@H]1O[C@@H]2O[C@H]3[C@H](O)[C@@H](O)[C@@H](O[C@H]4[C@H](O)[C@@H](O)[C@@H](O[C@H]5[C@H](O)[C@@H](O)[C@@H](O[C@H]6[C@H](O)[C@@H](O)[C@@H](O[C@H]7[C@H](O)[C@@H](O)[C@@H](O[C@H]1[C@H](O)[C@H]2O)O[C@@H]7CO)O[C@@H]6CO)O[C@@H]5CO)O[C@@H]4CO)O[C@@H]3CO [α-Cyclodextrin] | 0.54 | 760 ± 16 |  | 13 % (w/v)
